Entries after “also recorded” stand apart in the source; their conditions may differ.
What was measured:
NCI-H460 = assay: MTT antiproliferative assay, NCI-H460; format: cell-based, human; conditions: mean ± SD
Experimental: (§1) Having evaluated their Topo I inhibitory activity, the antiproliferative activity of the target compounds against some common human cancer cell lines (NCI-H460, A549, ACHN, Cal27 and MGC-803) and one normal cell line (SV-HUC-1) was tested via an MTT assay. TPT, the first Topo I inhibitor approved in clinics, and cisplatin (CDDP), a commonly selected anticancer drug for treating head and neck malignancies, were used as the positive controls.
(§2) Human oral cancer Cal27 cells were seeded in 96-well plates and incubated overnight in 180 μL of medium containing 10% Fetal Bovine Serum (Gibco, San Francisco, CA, USA). […] Then, 10 μL of 5 mg/mL MTT solution was added to each well and incubated at 37 °C for 4 h. After 4 h of incubation at 37 °C, the MTT-containing medium was removed and DMSO was added to each well and the absorbance at 570 nm and 630 nm was measured using a microplate reader (CYTATION 3, Burton, Westwood, NJ, USA). Survival/% = (mean OD of experimental group/mean OD of control group) × 100%. Each test was repeated at least three times.

A549 = assay: MTT antiproliferative assay, A549; format: cell-based, human; conditions: mean ± SD
Experimental: as §1, §2

ACHN = assay: MTT antiproliferative assay, ACHN; format: cell-based, human; conditions: 48 h, mean ± SD
Experimental: as §1, §2

Cal27 = assay: MTT antiproliferative assay, Cal27; format: cell-based, human; conditions: mean ± SD
Experimental: as §1, §2

MGC-803 = assay: MTT antiproliferative assay, MGC-803; format: cell-based, human; conditions: mean ± SD
Experimental: as §1, §2

SV-HUC-1 = assay: MTT assay, normal cell line SV-HUC-1; format: cell-based; conditions: mean ± SD
Experimental: as §1, §2

Topo I = target: T1, Topo I (Homo sapiens, UniProt P11387); assay: Topo I inhibitory activity, agarose gel electrophoresis (pBR322); format: biochemical; conditions: for nicked DNA in the lane (DNA breakage) / Topo I inhibitory activity (in words): 20 μM
T1 sequence (P11387 1-765): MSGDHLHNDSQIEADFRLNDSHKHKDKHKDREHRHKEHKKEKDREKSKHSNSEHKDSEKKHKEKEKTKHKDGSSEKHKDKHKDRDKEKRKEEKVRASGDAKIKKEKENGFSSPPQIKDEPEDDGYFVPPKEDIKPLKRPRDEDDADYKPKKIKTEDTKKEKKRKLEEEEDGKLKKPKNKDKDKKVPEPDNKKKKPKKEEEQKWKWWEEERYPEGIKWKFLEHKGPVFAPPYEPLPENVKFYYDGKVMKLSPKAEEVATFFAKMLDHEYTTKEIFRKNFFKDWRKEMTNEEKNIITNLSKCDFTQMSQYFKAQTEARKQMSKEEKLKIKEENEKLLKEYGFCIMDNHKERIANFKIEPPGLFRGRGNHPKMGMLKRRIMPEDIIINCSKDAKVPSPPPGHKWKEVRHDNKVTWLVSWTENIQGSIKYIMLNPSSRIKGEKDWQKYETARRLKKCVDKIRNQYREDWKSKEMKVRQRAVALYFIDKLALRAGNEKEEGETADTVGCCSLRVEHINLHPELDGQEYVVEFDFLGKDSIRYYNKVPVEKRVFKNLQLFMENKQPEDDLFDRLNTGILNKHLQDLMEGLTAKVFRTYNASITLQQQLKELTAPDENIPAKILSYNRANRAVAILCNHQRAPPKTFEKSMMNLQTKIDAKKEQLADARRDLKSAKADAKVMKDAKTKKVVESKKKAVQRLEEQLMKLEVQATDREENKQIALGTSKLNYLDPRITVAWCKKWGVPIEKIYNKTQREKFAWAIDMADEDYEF
Experimental: In this assay, 250 ng of pBR322 plasmid DNA, different concentrations of the compounds to be tested, 0.1% BSA 1 μL, 10× Topo I buffer, Topo I and add 1× TAE buffer were mixed to a final volume of 20 μL. The reaction was carried out for 30 min at 37 °C in a water bath. After the reaction was terminated, 4 μL of each of the 6× DNA Sampling Buffers were added to the gel. The pBR322 plasmid DNA alone was used as a negative control, and camptothecin was used as a positive control. Finally, the samples were loaded onto the gels and electrophoresed for about 1.5 h. After electrophoresis, the gel blocks were incubated in 1 mg/L ethidium bromide (EB) for 30 min and then visualized on the gel system.

Compound | IC50 (NCI-H460; Homo sapiens, NCI-H460, 48 h) [µM] | IC50 (A549; Homo sapiens, A549, 48 h) [µM] | IC50 (ACHN; Homo sapiens, ACHN) [µM] | IC50 (Cal27; Homo sapiens, CAL-27, 48 h) [µM] | IC50 (MGC-803; Homo sapiens, MGC-803, 48 h) [µM] | IC50 (SV-HUC-1; SV-HUC1, 48 h) [µM] | nicked DNA in the lane (DNA breakage) (Topo I) | Topo I inhibitory activity (in words) (Topo I) | concentration at which the activity of Topo I was fully inhibited (Topo I; different concentrations) [µM] | IC50 (NCI-H460; 48 h) [µM] | IC50 (A549; 48 h) [µM] | IC50 (ACHN) [µM] | IC50 (Cal27; 48 h) [µM] | IC50 (MGC-803; 48 h) [µM] | IC50 (SV-HUC-1; 48 h) [µM]
O=S1(=O)c2ncccc2-c2nc(NCCCN3CCCC3)c3ccccc3c21 [7ah, 5-((3-(Pyrrolidin-1-yl)propyl)amino)pyrido[3′,2′:4,5] thieno[3,2-c]isoquinoline 11,11-dioxide] | 42.7 ± 2.28 | 27.7 ± 1.49 | 13 ± 1.24 | 23.1 ± 2.48 | 19.5 ± 0.87 | > 100 | nicked DNA could be clearly observed | – | – | – | – | – | – | – | –
NCCCNc1nc2c(c3ccccc13)S(=O)(=O)c1ncccc1-2 [7ak, 5-((3-Aminopropyl)amino)pyrido[3′,2′:4,5]thieno[3,2-c]isoquinoline 11,11-dioxide] | 56.6 ± 3.25 | 52 ± 1.49 | 7.94 ± 3.26 | 10.6 ± 1.32 | 10.2 ± 1.61 | > 100 | nicked DNA could be clearly observed | – | – | – | – | – | – | – | –
Cc1cc(C)c2c(n1)S(=O)(=O)c1c-2nc(NCCN(C)C)c2ccccc12 [7ba, 5-((2-(Dimethylamino)ethyl)amino)-7,9-dimethylpyrido[3′,2′:4,5]thieno[3,2-c]isoquinoline 11,11-dioxide] | 6.68 ± 1.5 | 7.03 ± 1.95 | 4.59 ± 1.68 | 4.99 ± 2 | 6.33 ± 0.75 | 4.66 ± 1.69 | – | potent Topo I activity | – | – | – | – | – | – | –
CCN(CC)CCNc1nc2c(c3ccccc13)S(=O)(=O)c1nc(C)cc(C)c1-2 [7bb, 5-((2-(Diethylamino)ethyl)amino)-7,9-dimethylpyrido[3′,2′:4,5]thieno[3,2-c]isoquinoline 11,11-dioxide] | 7.68 ± 0.88 | 7.54 ± 2.07 | 5.66 ± 0.54 | 4.89 ± 2.41 | 6.02 ± 1.59 | 3.57 ± 0.35 | – | weak Topo I activity | – | – | – | – | – | – | –
Cc1cc(C)c2c(n1)S(=O)(=O)c1c-2nc(NCCN2CCCC2)c2ccccc12 [7bc, 7,9-Dimethyl-5-((2-(pyrrolidin-1-yl)ethyl)amino) pyrido[3′,2′:4,5]thieno[3,2-c]isoquinoline 11,11-dioxide] | 9.57 ± 2.07 | 5.47 ± 0.82 | 6.41 ± 1.41 | 3.36 ± 0.83 | 6.44 ± 0.76 | 8.17 ± 3.36 | – | potent Topo I activity | – | – | – | – | – | – | –
Cc1cc(C)c2c(n1)S(=O)(=O)c1c-2nc(NCCN2CCOCC2)c2ccccc12 [7bd, 7,9-Dimethyl-5-((2-morpholinoethyl)amino)pyrido[3′,2′:4,5]thieno[3,2-c]isoquinoline 11,11-dioxide] | > 100 | > 100 | > 100 | > 100 | > 100 | > 100 | – | weak Topo I activity | – | – | – | – | – | – | –
Cc1cc(C)c2c(n1)S(=O)(=O)c1c-2nc(NCCCN(C)C)c2ccccc12 [7bf, 5-((3-(Dimethylamino)propyl)amino)-7,9-dimethylpyrido[3′,2′:4,5]thieno[3,2-c]isoquinoline 11,11-dioxide] | 5.07 ± 1.92 | 6.25 ± 2.23 | 6.67 ± 1.49 | 5.2 ± 1.2 | 8.44 ± 2.86 | 5.14 ± 1.55 | – | potent Topo I activity; also recorded: weak Topo I activity | – | – | – | – | – | – | –
CCN(CC)CCCNc1nc2c(c3ccccc13)S(=O)(=O)c1nc(C)cc(C)c1-2 [7bg, 5-((3-(Diethylamino)propyl)amino)-7,9-dimethyl-pyrido[3′,2′:4,5]thieno[3,2-c]isoquinoline 11,11-dioxide] | 6.92 ± 2.01 | 6.54 ± 0.52 | 6.89 ± 2.86 | 6.35 ± 3.28 | 6.23 ± 1.96 | 4.38 ± 0.46 | – | weak Topo I activity | – | – | – | – | – | – | –
Cc1cc(C)c2c(n1)S(=O)(=O)c1c-2nc(NCCCN2CCCC2)c2ccccc12 [7bh, 7,9-Dimethyl-5-((3-(pyrrolidin-1-yl)propyl)amino)-pyrido[3′,2′:4,5]thieno[3,2-c]isoquinoline 11,11-dioxide] | 4.79 ± 0.4 | 4.84 ± 0.74 | 5.9 ± 1.45 | 3.47 ± 0.84 | 4.83 ± 0.67 | 3.83 ± 0.14 | – | potent Topo I activity | 40 | – | – | – | – | – | –
Cc1cc(C)c2c(n1)S(=O)(=O)c1c-2nc(NCCCN2CCOCC2)c2ccccc12 [7bi, 7,9-Dimethyl-5-((3-morpholinopropyl)amino)-pyrido[3′,2′:4,5]thieno[3,2-c]isoquinoline 11,11-dioxide] | 73.68 ± 0.67 | 80.5 ± 2.44 | > 100 | 20.3 ± 2.89 | > 100 | 87.4 ± 2.65 | – | weak Topo I activity | – | – | – | – | – | – | –
Cc1cc(-c2ccccc2)nc2c1-c1nc(NCCCN(C)C)c3ccccc3c1S2(=O)=O [7cf, 5-((3-(Dimethylamino)propyl)amino)-7-methyl-9-phenylpyrido[3′,2′:4,5]thieno[3,2-c]isoquinoline 11,11-dioxide] | – | – | – | – | – | – | nicked DNA could be clearly observed | – | – | 12.6 ± 2.23 | > 100 | 16.6 ± 3.08 | 21.5 ± 3.81 | 13.3 ± 4.44 | 12.1 ± 3.26
CCN(CC)CCCNc1nc2c(c3ccccc13)S(=O)(=O)c1nc(-c3ccccc3)cc(C)c1-2 [7cg, 5-((3-(Diethylamino)propyl)amino)-7-methyl-9-phenylpyrido[3′,2′:4,5]thieno[3,2-c]isoquinoline 11,11-dioxide] | – | – | – | – | – | – | nicked DNA could be clearly observed | – | – | 16.6 ± 1.44 | 27.1 ± 2.25 | 15.4 ± 3.65 | 17.7 ± 3.96 | 8.22 ± 2.75 | 15.6 ± 3.18
Cc1cc(-c2ccccc2)nc2c1-c1nc(NCCCN3CCCC3)c3ccccc3c1S2(=O)=O [7ch, 7-Methyl-9-phenyl-5-((3-(pyrrolidin-1-yl)propyl)-amino)pyrido[3′,2′:4,5]thieno[3,2-c]isoquinoline 11,11-dioxide] | – | – | – | – | – | – | nicked DNA could be clearly observed | – | – | > 100 | > 100 | > 100 | > 100 | > 100 | 49.6 ± 3.27

From article PMC11858653, “Design, Synthesis and Bioactive Evaluation of Topo I/c-MYC Dual Inhibitors to Inhibit Oral Cancer via Regulating the PI3K/AKT/NF-κB Signaling Pathway” (Molecules, 2025)
